The values below come from US7205304B2, “Sulfonyl-Derivatives as novel inhibitors of histone deacetylase” (Janssen Pharmaceutica N.V., priority 2002, dated 2007).

The target of data set [1] is histone deacetylase (HeLa nuclear extracts). Briefly: In vitro assay for inhibition of histone deacetylase. In kind it is biochemical. Conditions: [3H]acetylated histone H4 peptide substrate. The method, then:
The in vitro assay for inhibition of histone deacetylase (see example C.1) measures the inhibition of HDAC enzymatic activity obtained with the compounds of formula (I).
HeLa nuclear extracts (supplier: Biomol) were incubated at 60 μg/ml with 2×10^−8 M of radiolabeled peptide substrate. As a substrate for measuring HDAC activity a synthetic peptide, i.e. the amino acids 14–21 of histone H4, was used. The substrate is biotinylated at the NH2-terminal part with a 6-aminohexanoic acid spacer, and is protected at the COOH-terminal part by an amide group and specifically [^3H]acetylated at lysine 16. The substrate, biotin-(6-aminohexanoic)Gly-Ala-([^3H]-acetyl-Lys-Arg-His-Arg-Lys-Val-NH2), was added in a buffer containing 25 mM Hepes, 1 M sucrose, 0.1 mg/ml BSA and 0.01% Triton X-100 at pH 7.4. After 30 min the deacetylation reaction was terminated by the addition of HCl and acetic acid. (final concentration 0.035 mM and 3.8 mM respectively). After stopping the reaction, the free ^3H-acetate was extracted with ethylacetate. After mixing and centrifugation, the radioactivity in an aliquot of the upper (organic) phase was counted in a β-counter.
For each experiment, controls (containing HeLa nuclear extract and DMSO without compound), a blank incubation (containing DMSO but no HeLa nuclear extract or compound) and samples (containing compound dissolved in DMSO and HeLa nuclear extract) were run in parallel. In first instance, compounds were tested at a concentration of 10^−5M. […] In each test the blank value was substracted from both the control and the sample values. The control sample represented 100% of substrate deactylation. For each sample the radioactivity was expressed as a percentage of the mean value of the controls. […] Herein the effects of test compounds are expressed as pIC50 (the negative log value of the IC50-value).

The subject of data set [2] is A2780 ovarian carcinoma cells. Briefly: Antiproliferative activity on A2780 cells (MTT). Conditions: Homo sapiens, A2780, 96 h, four days of incubation, read-out: Cellular activity pIC50 (converted). In kind it is cell-based, human. The procedure: Cellular activity of the compounds of formula (I) was determined on A2780 tumour cells using a colorimetric assay for cell toxicity or survival (Mosmann Tim, Journal of Immunological Methods 65: 55–63, 1983)(see example C.2).
All compounds tested were dissolved in DMSO and further dilutions were made in culture medium. Final DMSO concentrations never exceeded 0.1% (v/v) in cell proliferation assays. Controls contained A2780 cells and DMSO without compound and blanks contained DMSO but no cells. MTT was dissolved at 5 mg/ml in PBS. A glycine buffer comprised of 0.1 M glycine and 0.1 M NaCl buffered to pH 10.5 with NaOH (1 N) was prepared (all reagents were from Merck).
The human A2780 ovarian carcinoma cells (a kind gift from Dr. T. C. Hamilton [Fox Chase Cancer Centre, Pennsylvania, USA]) were cultured in RPMI 1640 medium supplemented with 2 mM L-glutamine, 50 μg/ml gentamicin and 10% fetal calf serum. Cells were routinely kept as monolayer cultures at 37° C. in a humidified 5% CO2 atmosphere. Cells were passaged once a week using a trypsin/EDTA solution at a split ratio of 1:40. All media and supplements were obtained from Life Technologies. Cells were free of mycoplasma contamination as determined using the Gen-Probe Mycoplasma Tissue Culture kit (supplier: BioMérieux).
Cells were seeded in NUNC™ 96-well culture plates (Supplier: Life Technologies) and allowed to adhere to the plastic overnight. Densities used for plating were 1500 cells per well in a total volume of 200 μl medium. After cell adhesion to the plates, medium was changed and drugs and/or solvents were added to a final volume of 200 μl. Following four days of incubation, medium was replaced by 200 μl fresh medium and cell density and viability was assessed using an MTT-based assay. To each well, 25 μl MTT solution was added and the cells were further incubated for 2 hours at 37° C. The medium was then carefully aspirated and the blue MTT-formazan product was solubilized by addition of 25 μl glycine buffer followed by 100 μl of DMSO. […] Within an experiment, the results for each experimental condition are the mean of 3 replicate wells. For initial screening purposes, compounds were tested at a single fixed concentration of 10^−6 M. For active compounds, the experiments were repeated to establish full concentration-response curves. For each experiment, controls (containing no drug) and a blank incubation (containing no cells or drugs) were run in parallel. The blank value was subtracted from all control and sample values. For each sample, the mean value for cell growth (in absorbance units) was expressed as a percentage of the mean value for cell growth of the control. […] Herein the effects of test compounds are expressed as pIC50 (the negative log value of the IC50-value).

Data set [3] is described as follows: Kinetic solubility in aqueous media (nephelometry). Conditions: phosphate citrate buffer, pH 7.4, aqueous buffer, kinetic from dmso stock, phosphate citrate buffer pH 7.4, turbidity of three dilution steps; read-out: Solubility Score. In kind it is physicochemical. The method, then:
Kinetic solubility in aqueous media measures the ability of a compound to stay in aqueous solution upon dilution (see example C.3).
DMSO-stock solutions are diluted with a single aqueous buffer solvent in 3 consecutive steps. For every dilution turbidity is measured with a nephelometer.
In the first dilution step, 10 μl of a concentrated stock-solution of the active compound, solubilized in DMSO (5 mM), was added to 100 μl phosphate citrate buffer pH 7.4 and mixed. In the second dilution step, an aliquot (20 μl) of the first dilution step was further dispensed in 100 μl phosphate citrate buffer pH 7.4 and mixed. Finally, in the third dilution step, a sample (20 μl) of the second dilution step was further diluted in 100 μl phosphate citrate buffer pH 7.4 and mixed. All dilutions were performed in 96-well plates. Immediately after the last dilution step the turbidity of the three consecutive dilution steps were measured with a nephelometer. Dilution was done in triplicate for each compound to exclude occasional errors. Based on the turbidity measurements a ranking is performed into 3 classes. Compounds with high solubility obtained a score of 3 and for this compounds the first dilution is clear. Compounds with medium solubility obtained a score of 2. For these compounds the first dilution is unclear and the second dilution is clear. […] The solubility of 112 compounds was measured.

Converted amounts (≈) assume the structure as drawn.

Take `Cc1ccc(S(=O)(=O)N2CCN(c3ccc(C(=O)NO)cc3)CC2)cc1` [Compound 79]: in data set [1], the “Enzyme activity pIC50” value is reported as 6.238. The IC50 in data set [2] was 4290 nM. In data set [3], the solubility – broadly, the concentration that dissolves in the medium under given conditions – is < 75.8 µM.
Regarding `O=C(NO)c1ccc(N2CCN(S(=O)(=O)c3ccc(-c4ccccn4)s3)CC2)cc1` [Compound 68], the “Enzyme activity pIC50” value in data set [1] was determined as 6.908. Also, in data set [2], the IC50 is 1230 nM. In data set [3], the solubility was < 75.8 µM.
The like results for `CN1CCN(Cc2cccc(-c3ccc(S(=O)(=O)N4CCN(c5ncc(C(=O)NO)cn5)CC4)cc3)c2)CC1` [Compound 169] were, in that order, 8.338, 72.4 nM and > 454 µM.
Take `CN(C)Cc1sccc1-c1ccc(S(=O)(=O)N2CCN(c3ncc(C(=O)NO)cn3)CC2)cc1` [Compound 124]: in data set [1], the “Enzyme activity pIC50” value came out at 8.358. Further, in data set [2], the IC50 was 47.9 nM. For the same molecule, the solubility in data set [3] is > 454 µM.
In the case of `Cc1ccc(-c2ccc(S(=O)(=O)N3CCN(c4ncc(C(=O)NO)cn4)CC3)cc2)cc1` [Compound 179], the “Enzyme activity pIC50” value in data set [1] is recorded as 7.146. For the same molecule, the IC50 in data set [2] was 119 nM. Also, the solubility in data set [3] was 75.8 to 454 µM (≈ 34.4 to 206 µg/mL).
The like results for `Cc1c(C)c(S(=O)(=O)N2CCN(c3ccc(C(=O)NO)cc3)CC2)c(C)c2c1OC(C)(C)C2` [Compound 67] were, in that order, 5.177, 855 nM and < 75.8 µM.
In the same order, the values of `CN(C)CC1CN(c2ncc(C(=O)NO)cn2)CCN1S(=O)(=O)c1ccc(-c2ccccc2)cc1` (stereo not drawn) [Compound 143] are 7.002, 1320 nM and > 454 µM.
The like results for `O=C(NO)c1cnc(N2CCN(S(=O)(=O)c3ccc(-c4ccoc4)cc3)CC2)nc1` [Compound 100] were, in that order, 8.171, 57.9 nM and 75.8 to 454 µM (≈ 32.6 to 195 µg/mL).
For `COc1ccc(-c2ccc(S(=O)(=O)N3CCN(c4ncc(C(=O)NO)cn4)CC3)cc2)c(OC)c1OC` [Compound 134], the “Enzyme activity pIC50” value in data set [1] was 7.662. Moreover, in data set [2], the IC50 is 316 nM. The solubility in data set [3] was 75.8 to 454 µM (≈ 40.1 to 241 µg/mL).
In the case of `O=C(NO)c1cnc(N2CCN(S(=O)(=O)c3ccc(/C=C/c4ccccc4)cc3)CC2)nc1` [Compound 109], the “Enzyme activity pIC50” value in data set [1] is on record as 7.176. Further, in data set [2], the IC50 was 258 nM. Besides, the solubility in data set [3] fell in the range of 75.8 to 454 µM (≈ 35.3 to 212 µg/mL).
On to `Cc1noc(C)c1S(=O)(=O)N1CCN(c2ccc(C(=O)NO)cc2)CC1` [Compound 64], for which the “Enzyme activity pIC50” value in data set [1] stood at 5.753. The IC50 in data set [2] was 8910 nM. Also, the solubility in data set [3] was > 454 µM.
The like results for `COc1ccccc1-c1ccc(S(=O)(=O)N2CCN(c3ncc(C(=O)NO)cn3)CC2)cc1` [Compound 103] were, in that order, 7.586, 149 nM and 75.8 to 454 µM (≈ 35.6 to 213 µg/mL).
As for `COc1ccc(-c2ccc(S(=O)(=O)N3CCN(c4ncc(C(=O)NO)cn4)CC3)cc2)c(OC)c1` [Compound 99], the “Enzyme activity pIC50” value in data set [1] turned out to be 7.316. In addition, in data set [2], the IC50 is 242 nM. For the same molecule, the solubility in data set [3] was > 454 µM.
Take `O=C(NO)c1cnc(N2CCN(S(=O)(=O)c3ccc(-c4ccccc4CN4CCOCC4)cc3)CC2)nc1` [Compound 158]: the “Enzyme activity pIC50” value in data set [1] stood at 7.784. Also, the IC50 in data set [2] was 446 nM. In addition, in data set [3], the solubility is 75.8 to 454 µM (≈ 40.8 to 245 µg/mL).
In the same order, the values of `CN(c1ccccc1)c1ccc2cc(S(=O)(=O)N3CCN(c4ncc(C(=O)NO)cn4)CC3)ccc2c1` [Compound 186] are 6.539, 558 nM and 75.8 to 454 µM (≈ 39.3 to 236 µg/mL).
In the same order, the values of `O=C(NO)c1ccc(N2CCN(S(=O)(=O)c3ccc(Cl)s3)CC2)cc1` [Compound 66] are 6.197, 1330 nM and < 75.8 µM.
In the case of `O=C(NO)c1cnc(N2CCN(S(=O)(=O)c3ccc(-c4cccc(C(F)(F)F)c4)cc3)CC2)nc1` [Compound 102], the “Enzyme activity pIC50” value in data set [1] was 7.162. For the same molecule, the IC50 in data set [2] is 353 nM. In addition, the solubility in data set [3] fell in the range of 75.8 to 454 µM (≈ 38.5 to 231 µg/mL).
The like results for `O=C(NO)c1cnc(N2C[C@@H]3C[C@H]2CN3S(=O)(=O)c2ccc3ccccc3c2)nc1` [Compound 114] were, in that order, 7.428, 750 nM and > 454 µM.
In the same order, the values of `O=C(NO)c1cnc(N2CCN(S(=O)(=O)c3ccc(-c4cccc5c4oc4ccccc45)cc3)CC2)nc1` [Compound 131] are 6.058, 546 nM and 75.8 to 454 µM (≈ 40.1 to 241 µg/mL).
On to `O=C(NO)c1ccc(N2CCN(S(=O)(=O)c3ccc(Cl)c(Cl)c3)CC2)cc1` [Compound 80], for which the “Enzyme activity pIC50” value in data set [1] is on record as 5.961. For the same molecule, in data set [2], the IC50 was 1230 nM. In data set [3], the solubility was < 75.8 µM.
As for `O=C(NO)c1cnc(N2CCN(S(=O)(=O)c3ccc(-c4cccc(CN5CCOCC5)c4)cc3)CC2)nc1` [Compound 167], the “Enzyme activity pIC50” value in data set [1] is reported as 7.579. Further, the IC50 in data set [2] was 108 nM. Also, the solubility in data set [3] is > 454 µM.
On to `O=C(NO)c1cnc(N2CCN(S(=O)(=O)c3ccc(S(=O)(=O)c4ccccc4)s3)CC2)nc1` [Compound 183], for which the “Enzyme activity pIC50” value in data set [1] is recorded as 7.631. Also, the IC50 in data set [2] was 2320 nM. Moreover, the solubility in data set [3] was 75.8 to 454 µM (≈ 38.6 to 232 µg/mL).
As to `O=C(NO)c1cnc(N2CCN(S(=O)(=O)c3ccc(-c4ccccc4C(F)(F)F)cc3)CC2)nc1` [Compound 110], the “Enzyme activity pIC50” value in data set [1] came to 7.713. Further, in data set [2], the IC50 was 445 nM. Besides, the solubility in data set [3] is 75.8 to 454 µM (≈ 38.5 to 231 µg/mL).
For `CN1CCN(CCc2cccc(-c3ccc(S(=O)(=O)N4CCN(c5ncc(C(=O)NO)cn5)CC4)cc3)c2)CC1` [Compound 174], the “Enzyme activity pIC50” value in data set [1] was 8.212. Further, the IC50 in data set [2] was 80.4 nM. In addition, the solubility in data set [3] is > 454 µM.
As to `O=C(NO)c1cnc(N2CCN(S(=O)(=O)c3ccc(-c4cccc(CCN5CCCC5)c4)cc3)CC2)nc1` [Compound 127], in data set [1], the “Enzyme activity pIC50” value is on record as 8.482. In data set [2], the IC50 was 68.9 nM. In addition, in data set [3], the solubility is > 454 µM.
The like results for `Cn1cnc(S(=O)(=O)N2CCN(c3ccc(C(=O)NO)cc3)CC2)c1` [Compound 65] were, in that order, 5.775, > 10000 nM and > 454 µM.
